Read-outs that look alike come from different tables or passages of the source. Each block holds one compound with its values, some of them ahead of it.
What was measured:
radiation pneumonitis = test system: radiation pneumonitis; set-up: method as in Gao et al., 2013; details: delivered as late as 35 days after radiation; ref Gao et al., 2013; cited from earlier work
[1] = set-up: method as in Beermann 1988; details: humans; ref Beermann 1988; cited from earlier work
in vivo [2] = details: female, WAG/RijCmcr, rat, plasma, urine
From the text: (§1) WAG/RijCmcr female rats were irradiated without the use of anesthetics at 11–12 weeks of age weighing ∼155 g. All irradiations were done between 8–11 am. For leg-out PBI, non-anesthetized rats were immobilized in a plastic jig and irradiated using a XRAD-320 orthovoltage x-ray system (Precision X-Ray, North Branford, Connecticut). […] During the irradiation, each rat was confined in a chamber which allows irradiation of two rats simultaneously. One hind limb of each rat was carefully externalized from the chamber and shielded with a 0.25-inch lead block. The dose to this leg was 2 Gy. The dual-chambered jig was placed on a plane perpendicular to the beam direction, with distance from source to the midline of rats set at 61 cm. […] The irradiation field at midline was large enough to cover both chambers with adequate (at least 2 cm) margins. Supportive care was provided to rats receiving 13 Gy. Supportive care consisted of delivery of the antibiotic Enrofloxacin (10 mg/kg/day) from days 1–14 in the drinking water, and hydration by daily subcutaneous injection of saline (40 ml/kg/day) from days 3–7, post-irradiation.
(§2) Aliquots (0.1 ml) of rat plasma or urine were extracted with ∼3 volumes of cold acidified methanol spiked with enalaprilat as an internal standard (0.3 ml of methanol, 20 µL of 0.1 M HCl and 3 µL of 0.1 mM enalaprilat), mixed well and allowed to stand for 5 min before centrifugation at 14,000 rpm for 5 min at 4°C. […] Samples were injected into C18 reversed phase column (Waters Cortecs UPLC C18 2.1 mm × 50 mm, 1.6 µm) thermostated at 40°C and equilibrated with 0.1% formic acid in water:acetonitrile (95:5).
(§3) Pharmacokinetic (PK) modeling was performed on the data to measure distribution of the drug in different tissues (compartments). The two compartments fitted with observed data were the central compartment (plasma) and the peripheral compartment (internal tissues such as lungs, liver, kidneys, etc.). Administration by gavage was modeled using the gut as a depot to include bioavailability (F) and absorption (k a) from the gut (Figure 1). […] Clearance out of the system was modeled by Cl, the renal clearance rate via urine (Figure 1). The model was fitted using the open-source R package Nonlinear Mixed-Effects Model Development and Simulation (nlmixr) along with related R packages.
(§4) An additive error with compartment-specific variance was assumed for the plasma, peripheral, and urine compartments. Multiple measurements from the same animal were linked via a log-normally distributed multiplicative random effect on the compartment volumes V 2 and V 3.
(§5) The observed measurements are the concentration in plasma, Cplasma and the (cumulative) amount in the urine, Yurine .
(§6) The model was fitted to the plasma and urine data, the accumulation in the peripheral compartment was inferred from the model.

[3] = Lisinopril excreted in 24 h urine, measured by LC-MS/MS; type: in vivo, WAG/RijCmcr rats
Method: Urine was collected in a Nalgene rat metabolic cage. A rat was placed in the metabolic cage with access to food and water for 24 h. After 24 h urine volume was recorded, and an aliquot was frozen and stored at −80°C for LC-MS analyses.
Plasma was measured 1–4 times in each animal, at 0, 0.5, 1, 1.5, 2, 2.5, 3, 4, 5, 6, 8, 24 or 48 h after oral gavage, and 5 min, 1.5 and 24 h after intravenous injection.
Aliquots (0.1 ml) of rat plasma or urine were extracted with ∼3 volumes of cold acidified methanol spiked with enalaprilat as an internal standard (0.3 ml of methanol, 20 µL of 0.1 M HCl and 3 µL of 0.1 mM enalaprilat), mixed well and allowed to stand for 5 min before centrifugation at 14,000 rpm for 5 min at 4°C. The supernatant was passed through a Phree phospholipid removal plate (Phenomenex) and the eluate dried completely under a flux of air and reconstituted with 120 µL of LC-MS mobile phase (5% acetonitrile, 95% water, 0.1% formic acid), spiked with 1 µM of lisinopril-d5 used as a second internal standard. […] Samples were injected into C18 reversed phase column (Waters Cortecs UPLC C18 2.1 mm × 50 mm, 1.6 µm) thermostated at 40°C and equilibrated with 0.1% formic acid in water:acetonitrile (95:5). Compounds were eluted by increasing the concentration of acetonitrile in the mobile phase from 5 to 40% over 2.5 min at the flow rate of 0.5 ml/min.

[4] = control (nonirradiated) rats; base parameter estimate, two-compartment model
From the text: as §1, §2, §3, §4, §5, §6

in vivo [5] = details: female, WAG/RijCmcr, rat, plasma, po

Structure (SMILES): CCOC(=O)[C@H](CCc1ccccc1)N[C@@H](C)C(=O)N1CCC[C@H]1C(=O)O [enalapril]
Efficacy to mitigate radiation pneumonitis (radiation pneumonitis): had efficacy to mitigate radiation pneumonitis

CL renal (in vivo [2]): 0.15 mL/min | half-life (in vivo [2]; Model-based circulating half-life, irradiated rats): 2.5 h | half-life (in vivo [2]; Model-based circulating half-life, non-irradiated rats): 2.8 h | half-life (in vivo [2]; Model-based estimate of terminal half-life, irradiated rats): 83 h | half-life (in vivo [2]; Model-based estimate of terminal half-life, nonirradiated rats): 65 h | bioavailability (in vivo [2]; oral): 25.4% | bioavailability (in vivo [2]; po): 19.2% | Measured lisinopril excreted in urine per 300 µg administered, geometric mean ([3]; IV, no radiation): 0.46 µmol | Measured lisinopril excreted in urine per 300 µg administered, geometric mean ([3]; IV, radiation): 0.37 µmol | Measured lisinopril excreted in urine per 300 µg administered, geometric mean ([3]; gavage, no radiation): 0.072 µmol | Measured lisinopril excreted in urine per 300 µg administered, geometric mean ([3]; gavage, radiation): 0.11 µmol | Inter-individual variation (irradiated rats, 90 min after IV injection): 1.8 fold | Inter-individual variation (irradiated rats, 90 min after oral gavage (data not shown)): 2.7 fold | Inter-individual variation (non-irradiated rats, 90 min after oral gavage (data not shown)): 1.6 fold | Inter-individual variation (nonirradiated rats injected with lisinopril (result not shown)): 3-4 fold | Central volume [4]: 0.008 L | Peripheral volume (lung) [4]: 0.513 L | Tmax (in vivo [5]): 2 to 3 h
Structure (SMILES): NCCCC[C@H](N[C@@H](CCc1ccccc1)C(=O)O)C(=O)N1CCC[C@H]1C(=O)O [lisinopril]
Half-life of prolonged terminal phase [1]: 46.7 h | Time of peak serum levels [1]: 6 to 8 h

From PMC8111401 (Frontiers in Pharmacology, 2021)
